Laboratory results as given in patent US6229011A, “N-aroylphenylalanine derivative VCAM-1 inhibitors” (Hoffman-La Roche Inc., priority 1998, dated 2001).

Columns and labels:
VLA-4 (α4β1 integrin) [1] = target: T1, VLA-4 (α4β1 integrin) (Homo sapiens, UniProt P05556+P13612); assay: biochemical; format: binding
Procedure: VLA-4/VCAM-1 Screening Assay
VLA-4 antagonist activity, defined as ability to compete for binding to immobilized VCAM-1, was quantitated using a solid-phase, dual antibody ELISA. VLA-4 (α4β1 integrin) bound to VCAM-1 is detected by a complex of anti-integrin β1 antibody: HRP-conjugated anti-mouse IgG: chromogenic substrate (K-Blue). Initially, this entailed coating 96 well plates (Nunc Maxisorp) with recombinant human VCAM-1 (0.4 μg in 100 μl PBS), sealing each plate and then allowing the plates to stand at 4° C. for Å 18 hr. […] On the day of assay, all plates are washed twice with VCAM Assay Buffer (200 μl/well of 50 mM Tris-HCl. 100 mM NaCl, 1 mM MnCl2), 0.05% Tween 20; pH 7.4). Test compounds are dissolved in 100% DMSO and then diluted 1:20 in VCAM Assay Buffer supplemented with 1 mg/mL BSA (i.e., final DMSO=5%). […] 100 μl per well of each dilution is added to the VCAM-coated plates, followed by 10 μl of Ramos cell-derived VLA-4. These plates are sequentially mixed on a platform shaker for 1 min, incubated for 2 hr at 37° C., and then washed four times with 200 μl/well VCAM Assay Buffer. 100 μl of mouse anti-human integrin β1 antibody is added to each well (0.6 μg/mL in VCAM Assay Buffer+1 mg/mL BSA) and allowed to incubate for 1 hr at 37° C. At the conclusion of this incubation period, all plates are washed four times with VCAM Assay Buffer (200 μl/well). A corresponding second antibody, HRP-conjugated goat anti-mouse IgG (100 μl per well @1:800 dilution in VCAM Assay Buffer+1 mg/mL BSA), is then added to each well, followed by a 1 hr incubation at room temperature and concluded by three washes (200 μl/well) with VCAM Assay Buffer. Color development is initiated by addition of 100 μl K-Blue per well (15 min incubation, room temp) and terminated by addition of 100 μl Red Stop Buffer per well. […] Results are calculated as % inhibition of total binding (i.e. VLA-4+VCAM-1 in the absence of test compound).

VLA-4 (α4β1 integrin) [2] = target: T1, VLA-4 (α4β1 integrin); assay: cell-based; format: cell-based
Text: Ramos (VLA-4)/VCAM-1 Cell-Based Screening Assay Protocol
Calcein-AM was purchased from Molecular Probes Inc.
VLA-4 (α4β1 integrin) antagonist activity, defined as ability to compete with cell-surface VLA-4 for binding to immobilized VCAM-1, was quantitated using a Ramos-VCAM-1 cell adhesion assay. Ramos cells bearing cell-surface VLA-4, were labeled with a fluorescent dye (Calcein-AM) and allowed to bind VCAM-1 in the presence or absence of test compounds.
Initially, this entailed coating 96 well plates (Nunc Maxisorp) with recombinant human VCAM-1 (100 ng in 100 μl PBS), sealing each plate and allowing the plates to stand at 4° C. for Å 18 hr. The VCAM-coated plates were subsequently washed twice with 0.05% Tween-20 in PBS, and then blocked for 1 hr (room temperature) with 200 μl of Blocking Buffer (1% BSA/0.02% thimerosal) to reduce non-specific binding. Following the incubation with Blocking Buffer, plates were inverted, blotted and the remaining buffer aspirated. Each plate was then washed with 300 μl PBS, inverted and the remaining PBS aspirated.
Test compounds were dissolved in 100% DMSO and then diluted 1:25 in VCAM Cell Adhesion Assay Buffer (4 mM CaCl2, 4 mM MgCl2 in 50 mM TRIS-HCl, pH 7.5) (final DMSO=4%). […] 100 μl/well of each dilution was added to the VCAM-coated plates, followed by 100 μl of Ramos cells (200,000 cells/well in 1% BSA/PBS). […] Plates were inverted to remove non-adherent cells, blotted and 300 μl/well PBS added. Plates were again inverted, blotted and the remaining buffer gently aspirated. 100 μl Lysis Buffer (0.1% SDS in 50 mM TRIS-HCl, pH 8.5) was added to each well and agitated for 2 min on a rotary shaking platform.

VLA-4 = VLA-4 (Homo sapiens, UniProt P05556+P13612); assay: IC50 of table 7, assay not given; conditions: table 7, Examples 79-84; assay not stated
Chain of VLA-4 (P13612 34-1032): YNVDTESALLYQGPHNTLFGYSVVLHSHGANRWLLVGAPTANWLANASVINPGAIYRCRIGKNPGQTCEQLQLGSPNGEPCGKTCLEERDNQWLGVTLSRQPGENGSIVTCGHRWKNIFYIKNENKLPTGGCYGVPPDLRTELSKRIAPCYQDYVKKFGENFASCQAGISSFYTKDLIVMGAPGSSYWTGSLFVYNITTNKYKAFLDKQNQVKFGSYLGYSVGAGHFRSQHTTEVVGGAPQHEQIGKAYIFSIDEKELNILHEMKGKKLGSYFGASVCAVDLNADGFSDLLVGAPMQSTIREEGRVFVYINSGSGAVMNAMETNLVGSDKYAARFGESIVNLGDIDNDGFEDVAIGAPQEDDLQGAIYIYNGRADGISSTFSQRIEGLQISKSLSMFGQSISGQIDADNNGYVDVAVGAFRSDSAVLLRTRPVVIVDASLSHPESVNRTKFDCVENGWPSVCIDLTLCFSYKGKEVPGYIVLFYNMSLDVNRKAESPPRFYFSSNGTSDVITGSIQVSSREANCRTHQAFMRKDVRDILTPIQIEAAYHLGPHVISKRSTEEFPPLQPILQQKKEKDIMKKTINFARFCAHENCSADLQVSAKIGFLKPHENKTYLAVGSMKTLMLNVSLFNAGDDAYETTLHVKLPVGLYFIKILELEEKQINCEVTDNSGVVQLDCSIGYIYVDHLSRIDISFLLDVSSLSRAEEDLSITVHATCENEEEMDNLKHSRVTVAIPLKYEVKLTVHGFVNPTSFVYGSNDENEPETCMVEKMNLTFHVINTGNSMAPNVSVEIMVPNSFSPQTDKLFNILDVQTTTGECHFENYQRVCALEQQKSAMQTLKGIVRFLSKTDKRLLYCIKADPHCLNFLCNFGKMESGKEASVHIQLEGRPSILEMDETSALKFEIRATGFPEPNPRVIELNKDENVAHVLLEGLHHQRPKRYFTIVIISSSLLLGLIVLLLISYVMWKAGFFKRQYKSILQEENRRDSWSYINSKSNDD
Chain of VLA-4 (P05556 21-798): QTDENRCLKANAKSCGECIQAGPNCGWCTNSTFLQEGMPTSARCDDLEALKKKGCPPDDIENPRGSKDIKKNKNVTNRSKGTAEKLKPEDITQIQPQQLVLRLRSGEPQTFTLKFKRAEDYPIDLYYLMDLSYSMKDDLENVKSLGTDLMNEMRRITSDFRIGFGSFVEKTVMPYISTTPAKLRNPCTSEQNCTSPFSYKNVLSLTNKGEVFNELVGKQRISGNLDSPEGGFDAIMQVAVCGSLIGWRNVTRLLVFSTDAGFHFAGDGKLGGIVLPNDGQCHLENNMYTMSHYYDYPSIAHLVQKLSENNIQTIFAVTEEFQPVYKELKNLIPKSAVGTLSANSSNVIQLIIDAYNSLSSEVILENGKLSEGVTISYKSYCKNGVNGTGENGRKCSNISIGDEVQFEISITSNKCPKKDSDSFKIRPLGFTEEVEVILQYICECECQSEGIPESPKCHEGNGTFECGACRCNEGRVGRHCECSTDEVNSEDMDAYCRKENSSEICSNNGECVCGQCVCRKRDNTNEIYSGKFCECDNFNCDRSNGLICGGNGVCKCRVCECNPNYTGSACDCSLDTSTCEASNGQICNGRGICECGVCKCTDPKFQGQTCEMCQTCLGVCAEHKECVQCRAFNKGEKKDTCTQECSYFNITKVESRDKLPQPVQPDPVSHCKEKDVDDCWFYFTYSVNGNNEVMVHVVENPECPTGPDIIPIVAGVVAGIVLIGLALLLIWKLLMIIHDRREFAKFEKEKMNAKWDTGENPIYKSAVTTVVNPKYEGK

[3] = table 9, Examples 97-102, assay not given, values equal ELISA table 13, read-out: IC50
[4] = table 13, competition for binding of Ramos cell-derived VLA-4 to immobilized VCAM-1, read-out: ELISA IC50
[5] = table 14, Ramos cells binding to immobilized VCAM-1, read-out: Ramos IC50
[6] = table 12, Examples 156-160, assay not given, values equal Ramos table 14, read-out: IC50
[7] = table 11, Examples 151-155, assay not given, values equal Ramos table 14, read-out: IC50

T1 sequence (P13612 34-1032): as the sequence (P13612 34-1032) above
T1 sequence (P05556 21-798): as the sequence (P05556 21-798) above

Row | Compound | IC50 (VLA-4 (α4β1 integrin) [1]; [4]) [nM] | IC50 (VLA-4 (α4β1 integrin) [2]; [5]) [nM] | other results
1 | CC(=O)N1[C@H](CC(C)C)C(=O)N(c2ccc(C[C@H](NC(=O)c3c(C)cccc3Cl)C(=O)O)cc2)[C@@H]1C(C)(C)C [Example 102] |  |  | IC50 (VLA-4 (α4β1 integrin) [1]; [3]): 41 nM
2 | CCc1cccc(C)c1C(=O)N[C@@H](Cc1ccc(NC(=O)c2c(Cl)cccc2Cl)cc1)C(=O)O [Example 92] | 0.42 | 255 | IC50 (VLA-4 (α4β1 integrin) [2]; table 8, Examples 90-95, read-out: IC50 Ramos): 10 nM
3 | 4-[(2S,4R)-3-Acetyl-2-phenyl-4-(3-pyridinylmethyl)-5-oxo-1-imidazolinyl]-N- [(2-chloro-6-methylphenyl)carbonyl]-L-phenylalanine and 4-[(2R,4R)-3-acetyl-2-phenyl-4-(3-pyridinylmethyl)-5-oxo-1-imidazolinyl)-N-[(2-chloro-6-methylphenyl)carbonyl]-L-phenylalanine [Example 171] |  | 13.5 | 
4 | COc1ccc(Br)c(C(=O)N[C@@H](Cc2ccc(NC(=O)c3c(C)ccnc3C)cc2)C(=O)O)c1 [Example 108] | 0.63 | 22 | 
5 | CC(=O)N1[C@H](CC(C)C)C(=O)N(c2ccc(C[C@H](NC(=O)c3c(C)cccc3Cl)C(=O)O)cc2)[C@H]1c1ccc(O)cc1 [Example 97] |  |  | IC50 (VLA-4 (α4β1 integrin) [1]; [3]): 0.44 nM
6 | O=C(N[C@@H](Cc1ccc(NC(=O)c2c(Cl)cccc2Cl)cc1)C(=O)O)c1cccc(Cl)c1Cl [Example 20] |  | 1.63 | 
7 | Cc1nn(-c2ccccc2)nc1C(=O)N[C@@H](Cc1ccc(NC(=O)c2c(Cl)cccc2Cl)cc1)C(=O)O [Example 159] |  |  | IC50 (VLA-4 (α4β1 integrin) [2]; [6]): 988 nM
8 | O=C(Nc1ccc(C[C@H](NC(=O)c2c(F)cccc2C(F)(F)F)C(=O)O)cc1)c1c(Cl)cccc1Cl [Example 16] | 0.44 |  | 
9 | Cc1cc(C[C@H](NC(=O)c2c(C)cccc2Cl)C(=O)O)ccc1NC(=O)c1cccc([N+](=O)[O-])c1 [Example 122] | 0.67 | 430 | 
10 | O=C(Nc1ccc(C[C@H](NC(=O)c2cccc3ccccc23)C(=O)O)cc1)c1c(Cl)cccc1Cl [Example 15] | 5.9 | 2.6 | 
11 | Cc1cccc(Cl)c1C(=O)N[C@@H](Cc1ccc(NC(=O)c2nn(-c3ccccc3)nc2C)cc1)C(=O)O [Example 154] |  |  | IC50 (VLA-4 (α4β1 integrin) [2]; [7]): 2470 nM
12 | Cc1cc(C[C@H](NC(=O)c2c(C)cccc2Cl)C(=O)O)ccc1NC(=O)CCc1cccc(O)c1 [Example 120] | 4.5 | 439 | 
13 | Cc1cccc(Cl)c1C(=O)N[C@@H](Cc1ccc(N2C(=O)[C@H](Cc3ccccc3)N(C)C2=O)cc1)C(=O)O [Example 84] |  |  | IC50 (VLA-4): 73 nM
14 | Cc1cc2ncc(C(=O)Nc3ccc(C[C@H](NC(=O)c4c(C)cccc4Cl)C(=O)O)cc3)c(C)n2n1 [Example 155] |  |  | IC50 (VLA-4 (α4β1 integrin) [2]; [7]): 644 nM
15 | Cc1cccc(Cl)c1C(=O)N[C@@H](Cc1ccc(N2C(=O)[C@H](C(C)C)N(C)C2=O)cc1)C(=O)O [Example 80] |  |  | IC50 (VLA-4): 24 nM
16 | Cc1cccc(Cl)c1C(=O)N[C@@H](Cc1ccc(NC(=O)c2sc(C(C)C)nc2C)cc1)C(=O)O [Example 152] |  |  | IC50 (VLA-4 (α4β1 integrin) [2]; [7]): 967 nM
17 | COc1ccc(Br)c(C(=O)N[C@@H](Cc2ccc(NC(=O)c3c(Cl)cccc3Cl)cc2)C(=O)O)c1 [Example 24] |  | 20 | 
18 | CC(=O)N1[C@H](CC(C)C)C(=O)N(c2ccc(C[C@H](NC(=O)c3c(C)cccc3Cl)C(=O)O)cc2)[C@@H]1c1ccc(O)cc1 [Example 98] |  |  | IC50 (VLA-4 (α4β1 integrin) [1]; [3]): 2.35 nM
19 | CSc1ccccc1C(=O)N[C@@H](Cc1ccc(NC(=O)c2c(Cl)cccc2Cl)cc1)C(=O)O [Example 25] | 0.42 | 103 | 
20 | O=C(N[C@@H](Cc1ccc(NC(=O)c2c(Cl)cccc2Cl)cc1)C(=O)O)c1ccc(Br)cc1Cl [Example 22] |  | 1.32 | 
21 | Cc1cccc(C(=O)N[C@@H](Cc2ccc(NC(=O)c3c(Cl)cccc3Cl)cc2)C(=O)O)c1Cl [Example 21] |  | 1.27 | 
22 | Cc1cccc(Cl)c1C(=O)N[C@@H](Cc1ccc(N2C(=O)[C@@H](CC(C)C)N(C)C2=O)cc1)C(=O)O [Example 82] |  |  | IC50 (VLA-4): 56 nM
23 | Cc1cccc(Cl)c1C(=O)NC(Cc1ccc(N2C(=O)C3Cc4ccccc4CN3C2=O)cc1)C(=O)O (stereo not shown) [Example 83] |  |  | IC50 (VLA-4): 72 nM
24 | CC(=O)N1CN(c2ccc(C[C@H](NC(=O)c3c(C)cccc3Cl)C(=O)O)cc2)C(=O)[C@@H]1CC(C)C [Example 101] |  |  | IC50 (VLA-4 (α4β1 integrin) [1]; [3]): 9.9 nM
25 | Cc1noc(C)c1C(=O)N[C@@H](Cc1ccc(NC(=O)c2c(Cl)cccc2Cl)cc1)C(=O)O [Example 158] |  |  | IC50 (VLA-4 (α4β1 integrin) [2]; [6]): 946 nM
26 | Cc1cccc(Cl)c1C(=O)N[C@@H](Cc1ccc(N2C(=O)[C@H](C)N(C)C2=O)cc1)C(=O)O [Example 79] |  |  | IC50 (VLA-4): 53 nM
27 | Cc1cccc(Cl)c1C(=O)N[C@@H](Cc1ccc(NC(=O)c2c(C)noc2C)cc1)C(=O)O [Example 153] |  |  | IC50 (VLA-4 (α4β1 integrin) [2]; [7]): 975 nM

Second part, led by results:

Row | IC50 (VLA-4 (α4β1 integrin) [1]; [4]) [nM] | IC50 (VLA-4 (α4β1 integrin) [2]; [5]) [nM] | Compound | other results
28 | 1.87 |  | COc1ccc(C(=O)N[C@@H](Cc2ccc(NC(=O)c3c(Cl)cccc3Cl)cc2)C(=O)O)c(Cl)c1 [Example 19] | 
29 | 0.51 |  | O=C(N[C@@H](Cc1ccc(NC(=O)c2c(Cl)cccc2Cl)cc1)C(=O)O)c1ccccc1Cc1ccccc1 [Example 31, 4-[[(2,6-dichlorophenyl)carbonyl]amino]-N-[[(2-phenylmethyl)phenyl]carbonyl]-L-phenylalanine] | 
30 | 1.85 |  | CC(C)(C)c1ccccc1C(=O)N[C@@H](Cc1ccc(NC(=O)c2c(Cl)cccc2Cl)cc1)C(=O)O [Example 17] | 
31 | 1.7 | 316 | Cc1cc(C[C@H](NC(=O)c2c(C)cccc2Cl)C(=O)O)ccc1NC(=O)c1c(Cl)cccc1Cl [Example 123] | 
32 | 5.8 | 515 | Cc1cc(C[C@H](NC(=O)c2c(C)cccc2Cl)C(=O)O)ccc1NC(=O)Cc1cccc(O)c1 [Example 121] | 
33 | 0.48 | 316 | Cc1ccc(Cl)c(C(=O)N[C@@H](Cc2ccc(NC(=O)c3c(Cl)cccc3Cl)cc2)C(=O)O)c1 [Example 23] | 
